Values belong to the compound of their own block, whether it stands above or below them. The source made the active and inactive calls.
What was measured:
[1] = molecular target: Runt-related transcription factor 1/Core-binding factor subunit beta (Homo sapiens, UniProt Q01196+Q13951); assay: Confirmation of compounds inhibiting the binding between the RUNX1 Runt domain and CBFb-SMMHC via a fluorescence resonance energy transfer (FRET) assay. [Related pubchem assays (depositor defined):AID1434, AID1438, AID1496, AID1550, AID1645]; format: protein assay
[2] = molecular target: T1, Heat shock factor protein 1 (Mus musculus, UniProt P38532); assay: decrease of HSF1-responsive luciferase luminescence – cell-based, NIH3T3, dose retest, confirmation (AID 2382); format: functional;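 note: NIH3T3 fibroblasts with HSF1-driven luciferase reporter stressed by proteasome inhibitor MG132; luminescence from HSF1-driven luciferase expression after 8 hours of MG132 stress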
T1 sequence (P38532 whole entry): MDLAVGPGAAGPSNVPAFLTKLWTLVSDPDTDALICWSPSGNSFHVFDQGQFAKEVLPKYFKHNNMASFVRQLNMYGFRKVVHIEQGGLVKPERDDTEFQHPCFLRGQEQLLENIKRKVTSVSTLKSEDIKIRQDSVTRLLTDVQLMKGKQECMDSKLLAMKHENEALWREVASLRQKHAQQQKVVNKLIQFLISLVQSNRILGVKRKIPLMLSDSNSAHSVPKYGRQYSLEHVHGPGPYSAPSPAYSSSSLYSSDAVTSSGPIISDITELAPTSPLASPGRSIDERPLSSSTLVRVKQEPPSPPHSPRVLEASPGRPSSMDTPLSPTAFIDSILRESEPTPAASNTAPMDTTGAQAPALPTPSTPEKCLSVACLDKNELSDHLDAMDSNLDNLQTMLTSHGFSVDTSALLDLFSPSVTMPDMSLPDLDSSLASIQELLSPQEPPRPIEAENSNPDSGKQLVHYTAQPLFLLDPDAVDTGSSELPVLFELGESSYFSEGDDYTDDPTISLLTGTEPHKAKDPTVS

[3] = molecular target: T2, Corticotropin-releasing factor receptor 2/Corticotropin-releasing factor-binding protein (Homo sapiens, UniProt P24387+Q13324); assay: activators of CRF receptor 2 with binding protein – uHTS hits, confirmation (AID 602473); format: functional; conditions: read-out: EC50_Mean
T2 sequence (Q13324 whole entry): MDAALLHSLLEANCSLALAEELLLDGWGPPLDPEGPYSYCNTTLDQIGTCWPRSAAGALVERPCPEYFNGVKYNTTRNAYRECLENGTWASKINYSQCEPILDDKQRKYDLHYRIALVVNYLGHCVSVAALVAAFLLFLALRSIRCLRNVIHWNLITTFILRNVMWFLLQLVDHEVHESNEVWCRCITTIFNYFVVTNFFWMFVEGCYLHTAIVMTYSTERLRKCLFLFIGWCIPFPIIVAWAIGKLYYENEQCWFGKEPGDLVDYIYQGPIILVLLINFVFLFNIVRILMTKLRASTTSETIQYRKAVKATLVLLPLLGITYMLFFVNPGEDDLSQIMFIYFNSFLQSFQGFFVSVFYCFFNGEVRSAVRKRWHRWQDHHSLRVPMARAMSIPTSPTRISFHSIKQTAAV
T2 sequence (P24387 whole entry): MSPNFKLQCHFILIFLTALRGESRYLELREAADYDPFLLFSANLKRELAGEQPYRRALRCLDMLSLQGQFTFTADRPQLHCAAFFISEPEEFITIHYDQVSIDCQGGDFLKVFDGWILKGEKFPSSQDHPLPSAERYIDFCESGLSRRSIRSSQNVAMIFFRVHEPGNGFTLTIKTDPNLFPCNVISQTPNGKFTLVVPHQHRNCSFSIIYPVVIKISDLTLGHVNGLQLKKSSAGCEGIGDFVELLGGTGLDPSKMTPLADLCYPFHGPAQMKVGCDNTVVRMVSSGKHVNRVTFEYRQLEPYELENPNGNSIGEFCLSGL

[4] = molecular target: T3, E3 ubiquitin-protein ligase XIAP (Homo sapiens, UniProt P98170); assay: Counter Screen using XIAP-Bir3 for Chemical Antagonists of Bir1/2 domains of IAP-family anti-apoptotic proteins. [Related pubchem assays (depositor defined):AID1018, AID1449, AID1514, AID1638, AID1749, AID1750, AID488957, AID488963]
[5] = molecular target: T3, E3 ubiquitin-protein ligase XIAP; assay: small molecules displacing peptide from XIAP – biochemical, IAP family, fluorescence polarization (AID 1018); format: functional
[6] = molecular target: Voltage-dependent T-type calcium channel subunit alpha-1H (Homo sapiens, UniProt O95180); assay: human CACNA1H calcium influx blockade – cell-based, synthetic library set 2, HEK293 HH8, Fluo-4, SAR follow-up (AID 493023); format: functional
Voltage-dependent T-type calcium channel subunit alpha-1H, sequence (O95180 whole entry): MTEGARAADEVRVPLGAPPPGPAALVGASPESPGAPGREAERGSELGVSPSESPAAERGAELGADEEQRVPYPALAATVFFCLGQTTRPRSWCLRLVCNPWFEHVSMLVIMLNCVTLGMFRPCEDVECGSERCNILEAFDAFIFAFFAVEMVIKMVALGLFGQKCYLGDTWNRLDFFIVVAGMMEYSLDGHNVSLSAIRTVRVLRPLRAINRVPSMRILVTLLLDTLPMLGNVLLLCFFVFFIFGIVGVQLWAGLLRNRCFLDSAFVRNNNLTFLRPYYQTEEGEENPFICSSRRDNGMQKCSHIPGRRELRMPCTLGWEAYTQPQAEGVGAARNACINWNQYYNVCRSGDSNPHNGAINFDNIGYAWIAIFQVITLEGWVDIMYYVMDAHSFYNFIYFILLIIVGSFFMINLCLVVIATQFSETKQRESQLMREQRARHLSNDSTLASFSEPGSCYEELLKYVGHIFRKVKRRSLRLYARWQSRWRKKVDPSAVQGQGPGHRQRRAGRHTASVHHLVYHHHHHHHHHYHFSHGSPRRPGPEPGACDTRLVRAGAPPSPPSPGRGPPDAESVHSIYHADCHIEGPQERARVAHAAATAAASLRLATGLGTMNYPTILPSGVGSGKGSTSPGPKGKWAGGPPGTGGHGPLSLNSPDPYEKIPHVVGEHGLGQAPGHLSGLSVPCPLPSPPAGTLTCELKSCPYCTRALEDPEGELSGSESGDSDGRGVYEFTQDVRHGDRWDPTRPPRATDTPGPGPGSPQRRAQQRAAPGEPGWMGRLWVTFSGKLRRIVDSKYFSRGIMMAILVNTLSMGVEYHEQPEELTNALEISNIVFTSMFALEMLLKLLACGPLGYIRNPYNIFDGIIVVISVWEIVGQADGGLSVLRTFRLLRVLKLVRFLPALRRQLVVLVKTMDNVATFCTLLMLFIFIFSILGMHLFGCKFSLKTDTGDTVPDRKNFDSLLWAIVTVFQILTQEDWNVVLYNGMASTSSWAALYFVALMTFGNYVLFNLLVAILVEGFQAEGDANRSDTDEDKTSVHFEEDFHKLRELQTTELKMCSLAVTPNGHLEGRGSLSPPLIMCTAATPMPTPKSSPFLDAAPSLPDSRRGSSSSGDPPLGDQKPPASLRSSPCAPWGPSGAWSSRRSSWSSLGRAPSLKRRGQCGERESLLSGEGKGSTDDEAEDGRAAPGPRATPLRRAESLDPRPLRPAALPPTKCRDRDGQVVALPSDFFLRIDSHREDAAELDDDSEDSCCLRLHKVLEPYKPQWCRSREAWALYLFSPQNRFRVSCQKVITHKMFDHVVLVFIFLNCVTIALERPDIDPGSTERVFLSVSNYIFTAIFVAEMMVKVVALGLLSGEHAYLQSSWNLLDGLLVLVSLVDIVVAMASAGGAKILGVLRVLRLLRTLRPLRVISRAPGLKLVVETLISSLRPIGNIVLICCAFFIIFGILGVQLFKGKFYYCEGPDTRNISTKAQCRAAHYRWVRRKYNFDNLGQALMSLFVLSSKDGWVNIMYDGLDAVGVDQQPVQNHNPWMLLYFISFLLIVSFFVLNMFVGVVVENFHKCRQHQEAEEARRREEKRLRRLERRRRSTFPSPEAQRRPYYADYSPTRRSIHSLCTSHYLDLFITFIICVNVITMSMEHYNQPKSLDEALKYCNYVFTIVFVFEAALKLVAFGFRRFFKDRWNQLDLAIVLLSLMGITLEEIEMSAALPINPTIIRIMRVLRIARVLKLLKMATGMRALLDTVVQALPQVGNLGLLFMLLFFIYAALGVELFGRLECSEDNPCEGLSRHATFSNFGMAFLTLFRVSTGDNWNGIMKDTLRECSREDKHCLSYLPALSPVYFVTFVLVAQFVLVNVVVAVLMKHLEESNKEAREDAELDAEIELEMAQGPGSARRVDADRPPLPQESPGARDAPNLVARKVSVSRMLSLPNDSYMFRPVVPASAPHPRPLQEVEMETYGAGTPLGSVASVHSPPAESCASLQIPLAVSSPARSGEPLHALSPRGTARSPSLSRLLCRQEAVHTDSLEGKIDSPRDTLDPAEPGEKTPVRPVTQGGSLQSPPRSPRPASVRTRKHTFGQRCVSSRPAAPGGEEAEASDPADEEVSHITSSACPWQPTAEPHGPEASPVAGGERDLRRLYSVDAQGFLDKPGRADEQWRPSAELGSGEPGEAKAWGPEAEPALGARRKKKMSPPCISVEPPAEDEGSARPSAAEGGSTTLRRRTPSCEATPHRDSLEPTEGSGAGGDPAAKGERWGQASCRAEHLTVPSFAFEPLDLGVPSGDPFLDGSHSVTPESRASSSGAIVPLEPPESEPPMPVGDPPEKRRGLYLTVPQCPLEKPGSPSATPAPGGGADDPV

T3 sequence (P98170 whole entry): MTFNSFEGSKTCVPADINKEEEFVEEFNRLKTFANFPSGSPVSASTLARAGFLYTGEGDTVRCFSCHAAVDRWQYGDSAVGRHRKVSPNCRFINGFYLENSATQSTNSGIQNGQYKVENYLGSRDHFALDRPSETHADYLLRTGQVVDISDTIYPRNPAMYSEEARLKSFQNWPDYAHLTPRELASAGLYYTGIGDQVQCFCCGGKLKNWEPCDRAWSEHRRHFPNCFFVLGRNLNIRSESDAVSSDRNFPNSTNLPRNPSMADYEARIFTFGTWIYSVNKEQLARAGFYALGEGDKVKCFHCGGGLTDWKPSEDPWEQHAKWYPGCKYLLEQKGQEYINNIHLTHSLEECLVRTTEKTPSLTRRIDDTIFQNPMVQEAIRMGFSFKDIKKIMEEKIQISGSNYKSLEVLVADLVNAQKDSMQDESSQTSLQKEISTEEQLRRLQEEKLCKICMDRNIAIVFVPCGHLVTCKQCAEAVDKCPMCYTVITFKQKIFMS
Runt-related transcription factor 1/Core-binding factor subunit beta, sequence (Q01196 whole entry, the tested form may be a part): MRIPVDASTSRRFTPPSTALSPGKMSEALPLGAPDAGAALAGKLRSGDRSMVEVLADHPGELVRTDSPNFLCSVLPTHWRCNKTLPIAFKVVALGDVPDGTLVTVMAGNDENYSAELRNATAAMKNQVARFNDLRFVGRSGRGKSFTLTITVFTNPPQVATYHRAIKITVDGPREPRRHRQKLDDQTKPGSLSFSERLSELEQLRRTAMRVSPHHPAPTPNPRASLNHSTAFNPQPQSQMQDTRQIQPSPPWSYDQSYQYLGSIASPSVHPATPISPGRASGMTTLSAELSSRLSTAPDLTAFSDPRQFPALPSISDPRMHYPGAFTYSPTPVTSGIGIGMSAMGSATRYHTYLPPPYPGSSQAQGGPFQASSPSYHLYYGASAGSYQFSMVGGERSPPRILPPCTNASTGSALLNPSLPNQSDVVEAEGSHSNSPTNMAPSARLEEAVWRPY
Runt-related transcription factor 1/Core-binding factor subunit beta, sequence (Q13951 whole entry, the tested form may be a part): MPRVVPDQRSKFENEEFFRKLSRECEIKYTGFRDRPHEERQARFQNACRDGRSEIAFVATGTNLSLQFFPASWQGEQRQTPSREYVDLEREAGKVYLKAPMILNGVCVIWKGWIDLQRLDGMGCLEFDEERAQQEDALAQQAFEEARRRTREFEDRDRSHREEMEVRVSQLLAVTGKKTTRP

IC50 [1]: 12.8 µM (active) | EC50 [2]: 92.9 µM (active) | EC50 [3]: > 53 µM (inactive)
SMILES: CCS(=O)(=O)Nc1ccc(-c2nc3cccnc3s2)cc1

IC50 [4]: > 100 µM (inactive) | IC50 [5]: > 100 µM (not active)
SMILES: O=C1C2C3c4ccccc4C(c4ccccc43)C2C(=O)N1c1ccncc1 (stereo unspecified)

EC50 [6]: 10 µM (active)
SMILES: O=C(COc1ccc(F)c(Cl)c1)N[C@H]1CCCN(Cc2ccccc2)C1
